Reference: ChEMBL document CHEMBL1201862, “PubChem BioAssay data set” (2004)
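The compound was tested at five concentrations on cells cultured in 96-well plates, with a 48-hour exposure period. GI50 is the concentration that inhibits growth by half.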 Active and inactive are the calls of the source. Cut-off read from the data, not from the text of the source: active = GI50 up to about 1.1 µM and inactive = higher.

Columns and labels:
Experiment in all cases: NCI anticancer screen, dose series, 48 h
HL-60 = test system: HL-60
MOLT-4 = test system: MOLT-4
UACC-62 = test system: UACC-62
RPMI-8226 = test system: RPMI-8226
U-251 = test system: U-251
SF-268 = test system: SF-268
NCI-H226 = test system: NCI-H226
ACHN = test system: ACHN
SW-620 = test system: SW-620
HCT-15 = test system: HCT-15
IGROV-1 = test system: IGROV-1
M14 = test system: M14
NCI/ADR-RES = test system: NCI/ADR-RES
SK-OV-3 = test system: SK-OV-3
NCI-H460 = test system: NCI-H460
MDA-MB-435 = test system: MDA-MB-435
HOP-62 = test system: HOP-62
SK-MEL-28 = test system: SK-MEL-28
OVCAR-3 = test system: OVCAR-3
RXF 393 = test system: RXF 393

Structure (SMILES)	GI50 (HL-60)	GI50 (MOLT-4)	GI50 (UACC-62)	GI50 (RPMI-8226)	GI50 (U-251)	GI50 (SF-268)	GI50 (NCI-H226)	GI50 (ACHN)	GI50 (SW-620)	GI50 (HCT-15) [µM]	GI50 (IGROV-1)	GI50 (M14)	GI50 (NCI/ADR-RES)	GI50 (SK-OV-3)	GI50 (NCI-H460)	GI50 (MDA-MB-435)	GI50 (HOP-62)	GI50 (SK-MEL-28)	GI50 (OVCAR-3)	GI50 (RXF 393)
CCOC(=O)C(SCCO)C(C(=O)OCC)n1ccc(N)nc1=O (centres undefined)	> 100 µM (inactive)	> 100 µM (inactive)	> 100 µM (inactive)	> 100 µM (inactive)	> 100 µM (inactive)	> 100 µM (inactive)	> 100 µM (inactive)	> 100 µM (inactive)	> 100 µM (inactive)	> 100	> 100 µM (inactive)	> 100 µM (inactive)	> 100 µM (inactive)	> 100 µM (inactive)	> 100 µM (inactive)	> 100 µM (inactive)	> 100 µM (inactive)	> 100 µM (inactive)	> 100 µM (inactive)	–
O=C(O)C1CCCN1Cc1ccc2c(c1)OCO2 (centres undefined)	–	> 100 µM (inactive)	> 100 µM (inactive)	> 100 µM (inactive)	> 100 µM (inactive)	> 100 µM (inactive)	> 100 µM (inactive)	> 100 µM (inactive)	> 100 µM (inactive)	> 100	> 100 µM (inactive)	> 100 µM (inactive)	> 100 µM (inactive)	> 100 µM (inactive)	> 100 µM (inactive)	> 100 µM (inactive)	> 100 µM (inactive)	> 100 µM (inactive)	> 100 µM (inactive)	> 100 µM (inactive)
COc1ccc(CC(COS(=O)(=O)c2ccc(C)cc2)NS(=O)(=O)c2ccc(C)cc2)cc1 (centres undefined)	–	> 100 µM (inactive)	6.98 µM (inactive)	15.2 µM (inactive)	11.8 µM (inactive)	12.2 µM (inactive)	7.4 µM (inactive)	12.3 µM (inactive)	10.9 µM (inactive)	14.2	7.87 µM (inactive)	8.34 µM (inactive)	11 µM (inactive)	15.2 µM (inactive)	11.5 µM (inactive)	13.9 µM (inactive)	16.7 µM (inactive)	15.5 µM (inactive)	9.55 µM (inactive)	3.27 µM (inactive)
O=c1[nH]c(=O)n(C2OC(CO)C(O)C2O)cc1OCCc1ccccc1 (centres undefined)	> 100 µM (inactive)	> 100 µM (inactive)	> 100 µM (inactive)	–	–	> 100 µM (inactive)	> 100 µM (inactive)	> 100 µM (inactive)	> 100 µM (inactive)	> 100	> 100 µM (inactive)	> 100 µM (inactive)	> 100 µM (inactive)	> 100 µM (inactive)	> 100 µM (inactive)	> 100 µM (inactive)	> 100 µM (inactive)	> 100 µM (inactive)	> 100 µM (inactive)	> 100 µM (inactive)
CN1C(=O)c2ccccc2OC12C=Cc1ccc(O)cc1O2 (centres undefined)	17.8 µM (inactive)	16.7 µM (inactive)	28.8 µM (inactive)	30.3 µM (inactive)	24.8 µM (inactive)	26.9 µM (inactive)	23.2 µM (inactive)	23 µM (inactive)	26.6 µM (inactive)	29.6	28.2 µM (inactive)	12.7 µM (inactive)	13.5 µM (inactive)	19.5 µM (inactive)	20 µM (inactive)	16.4 µM (inactive)	13.3 µM (inactive)	21.3 µM (inactive)	17.1 µM (inactive)	–
CC(=O)Nc1ccc2cc(C)c(O)nc2n1	> 100 µM (inactive)	> 100 µM (inactive)	> 100 µM (inactive)	> 100 µM (inactive)	> 100 µM (inactive)	> 100 µM (inactive)	–	> 100 µM (inactive)	> 100 µM (inactive)	> 100	> 100 µM (inactive)	> 100 µM (inactive)	8.09 µM (inactive)	> 100 µM (inactive)	> 100 µM (inactive)	> 100 µM (inactive)	–	> 100 µM (inactive)	–	25.9 µM (inactive)
CCCC/C=C1\CCC(CN2CCCCC2)C1=O (centres undefined)	7.6 µM (inactive)	8.38 µM (inactive)	11.4 µM (inactive)	–	29.2 µM (inactive)	32.1 µM (inactive)	26.5 µM (inactive)	29.3 µM (inactive)	7.91 µM (inactive)	9.06	19.1 µM (inactive)	10.1 µM (inactive)	> 100 µM (inactive)	> 42.1 µM (inactive)	33.6 µM (inactive)	> 100 µM (inactive)	33 µM (inactive)	21.3 µM (inactive)	29.8 µM (inactive)	10.9 µM (inactive)
O=S(=O)(O)c1cc(/N=N/c2c(O)ccc3ccccc23)ccc1/C=C/c1ccc(/N=N/c2c(O)ccc3ccccc23)cc1S(=O)(=O)O	–	–	> 100 µM (inactive)	> 100 µM (inactive)	> 100 µM (inactive)	> 100 µM (inactive)	> 100 µM (inactive)	> 100 µM (inactive)	> 100 µM (inactive)	> 100	70.3 µM (inactive)	99.5 µM (inactive)	> 100 µM (inactive)	> 100 µM (inactive)	–	> 100 µM (inactive)	> 100 µM (inactive)	> 100 µM (inactive)	> 100 µM (inactive)	> 100 µM (inactive)
CCCCc1ccc(-n2sc3ncc([N+](=O)[O-])cc3c2=O)cc1	10.4 µM (inactive)	20.3 µM (inactive)	8.69 µM (inactive)	9.12 µM (inactive)	12.6 µM (inactive)	13 µM (inactive)	12.8 µM (inactive)	14.8 µM (inactive)	16.8 µM (inactive)	15.1	13.8 µM (inactive)	17.4 µM (inactive)	11.5 µM (inactive)	> 100 µM (inactive)	12.7 µM (inactive)	14.4 µM (inactive)	14.4 µM (inactive)	14.1 µM (inactive)	5.05 µM (inactive)	–
Cc1cc(Oc2cnc(=O)[nH]c2)cs1	> 100 µM (inactive)	> 100 µM (inactive)	> 100 µM (inactive)	> 100 µM (inactive)	> 100 µM (inactive)	> 100 µM (inactive)	> 100 µM (inactive)	> 100 µM (inactive)	> 100 µM (inactive)	> 100	> 100 µM (inactive)	> 100 µM (inactive)	> 100 µM (inactive)	> 100 µM (inactive)	> 100 µM (inactive)	> 100 µM (inactive)	> 100 µM (inactive)	> 100 µM (inactive)	> 100 µM (inactive)	–
COc1ccc2c(C)c(Oc3c(Cl)c(Cl)c(O)c(C#N)c3C#N)oc2c1	> 100 µM (inactive)	> 100 µM (inactive)	> 100 µM (inactive)	> 100 µM (inactive)	> 100 µM (inactive)	> 100 µM (inactive)	> 100 µM (inactive)	> 100 µM (inactive)	> 100 µM (inactive)	> 100	> 100 µM (inactive)	> 100 µM (inactive)	> 100 µM (inactive)	> 100 µM (inactive)	> 100 µM (inactive)	> 100 µM (inactive)	> 100 µM (inactive)	> 100 µM (inactive)	> 100 µM (inactive)	–
